The values below come from US20260000763A1, “Methods of Manufacturing Therapeutic Cells” (The Board of Trustees of the Leland Stanford Junior …, priority 2022, published 2026).

SMILES strings stand for the structures.

Series [1] concerns Nalm6-GD2, 143b and CHL255 tumor cell lines. The series is described as follows: Co-culture of HA CAR T cells with GD2-expressing tumor lines: IncuCyte killing, IL-2 and IFNγ secretion. The series is classed as cell-based, human. The settings on record: for antigen induced IFNγ secretion: Nalm6-GD2 24 hrs, D14 cells, INO in presence or absence of glucose.
In series [2] the test system is HA-CAR T cells and CD19-CAR T cells. The series is described as follows: Seahorse analysis of mitochondrial fitness; cell size. It is filed as cell-based. As to the method:
To measure mitochondrial fitness in CAR T cells cultured in the presence or absence of INO, Seahorse analysis was performed.

For a further series, the system named is GD2-CAR T cells. The series is described as follows: GD2-CAR T cells manufactured in TexMACS with increasing concentrations of INO. It is filed as cell-based. As to the method: FIG. 13A-13H: Clinical scale manufacturing of clinical grade GD2-CAR T cells using media containing inosine, improves CAR product quality. A: Schematic of large-scale manufacturing of GD2.bbz-CAR+ T cells in a semi-closed G-Rex system in glucose-or inosine-containing media. 7 days post-activation, transduction efficiency, percentage of viable cells, and CD4/CD8 ratio of GD2+ cells were assessed by flow cytometry. […] B: Expansion of total viable T cells manufactured in control (black) vs. inosine (green)-containing media and (Right) corresponding number of CAR+ cells at day 7. […] C: IL-2 and IFNg secretion by CAR T cells stimulated for 24 hrs with 143b, mg63.3 or Nalm6-GD2 tumor lines. […] D: NSG mice were injected with 1×10^6 Nalm6 leukemia cells. On day 3 post-tumor injection, 2×10^6 of mock or GD2.bbz-CAR T cells manufactured in the presence of inosine or in regular media were transferred intravenously. Tumor growth was monitored by bioluminescent imaging. […] P values determined at day 43 by using Mann-Whitney test. […] E: Concentration of CD45+ T cells detected in blood of mice at D33 post-CAR T cell injection. […] F: Schematic of the experimental design. G: GD2.bbz-CAR T cells grown in media containing indicated inosine concentration between day 3 and day 10 post-activation and stimulated with 143b tumor. IL-2 and IFNg secretion after 24 hrs of co-culture was measured. Data are mean±s.d. of duplicate or triplicate wells. Representative of n=3 donors shown. […] Reprograming is due to an increase in glutaminolysis and polyamine synthesis and downregulation of CD73, FOXP3, A2aR and c-AMP response transcription factors.
Finally, to test compatibility of adding INO to GMP-grade culture media that contains glucose, GD2-CAR T cells were manufactured in TexMACS™ with increasing concentrations of INO (FIG. 13F).

Turning to `O=c1[nH]cnc2c1ncn2[C@@H]1O[C@H](CO)[C@@H](O)[C@H]1O` [inosine, Inosine], the cytotoxic function result in series [1] (INO added on day 4, 7, 10 or 14, 143b 1:1 E:T from day 15) is “increased cytotoxic function”. For the same molecule, the results for the “antigen induced IFNγ secretion” value in series [1] and in series [1] (listed as INO) were “significantly enhanced antigen induced IFNγ secretion” and “enhanced antigen induced IFNγ secretion”, respectively. In series [1] (serial challenge with Nalm6-GD2 1:1, glucose present or absent during manufacturing), the “tumor killing and cytokine secretion after multiple stimulations” value was “enhanced tumor killing and cytokine secretion”. The “metabolic profile of non-tonic signaling CD19-CAR T cells” value in series [2] (Seahorse, day 11) is “memory-like metabolic profile”. Further, the “basal oxygen consumption rate (Basal OCR)” value in series [2] (day 11, control vs INO cultured cells) was “did not differ”. For the same molecule, the “size of the cells” value in series [2] (day 13 post-activation) was “increased size”. Moreover, the “antigen induced cytokine production” value in the series with GD2-CAR T cells (INO 11 mM vs lower concentrations) is given as “trend toward greater antigen induced cytokine production”. The cell proliferation result in the series on GD2-CAR T cells (TexMACS (contains glucose) with increasing INO) is reported as “significantly decreased cell proliferation”. Moreover, in the series with GD2-CAR T cells (TexMACS with increasing INO), the “CAR T cell viability” value is “no changes”. For the same molecule, in the series with GD2-CAR T cells (challenged with 143b cells, 24 hrs, INO day 3 to day 10), the “secretion of IL-2 and IFNg” value is reported as “dose-dependent increase”. For the same molecule, the CD62L expression entry in the series on GD2-CAR T cells (vs control cells) was “increased CD62L expression”.
